Measurements from US9938322B2, “β-hairpin peptidomimetics” (priority 2013, dated 2018).
*1 amine or outer side, *2 acyl side, *3 side chain or, on linkers, in order; H or OH if unused. Where a SMILES comes first, the peptide text is derived from it. Side-chain parts run from the residue outwards. [ ]: non-standard residue; d: D form. The star is where a group is joined. NH(4-Cl-phenyl) = Clc1ccc(N*)cc1; Cha = N[C@@H](CC1CCCCC1)C(=O)O; Tle = CC(C)(C)[C@H](N)C(=O)O; NH(2-ClPh) = Clc1ccccc1N*; dDab = NCC[C@@H](N)C(=O)O; Orn = NCCC[C@H](N)C(=O)O; Dab = NCC[C@H](N)C(=O)O; Dap = NC[C@H](N)C(=O)O; CO = O=C([*:1])[*:2]

Legend:
Format in all cases: cell-based
[1] = tested on: Escherichia coli ATCC 25922; conditions: Mueller-Hinton II broth + 0.02% BSA, 18-20 hours at 35° C.
Experimental: (§1) Lyophilized peptides were weighed on a Microbalance (Mettler MT5) and dissolved in sterile water to a final concentration of 1 mg/ml. Stock solutions were kept at +4° C., light protected.
(§2) The selective antimicrobial activities of the peptides were determined in 96-well plates (Greiner, polystyrene) by the standard NCCLS broth microdilution method (National Committee for Clinical Laboratory Standards 1993. Methods for dilution antimicrobial susceptibility tests for bacteria that grow aerobically, 3rd ed. Approved standard M7-A6; National Committee for Clinical laboratory standards, Wayne, Pa.) with slight modifications. Inocula of the microorganisms were diluted into Mueller-Hinton II (MH, cation adjusted) broth+0.02% BSA and compared with a 0.5 McFarland standard to give appr. 10^6 colony forming units (CFU)/ml. Aliquots (50 μl) of inoculate were added to 50 μl of MH broth+0.02% BSA containing the peptide in serial two-fold dilutions. The following microorganisms were used to determine antibiotic selectivity of the peptides: Escherichia coli ATCC 25922, Klebsiella pneumoniae ATCC 13883 and Acinetobacter baumannii DSM 30008.

[2] = tested on: Klebsiella pneumoniae ATCC 13883; conditions: Mueller-Hinton II broth + 0.02% BSA, 18-20 hours at 35° C.
Experimental: as §1, §2

[3] = tested on: Acinetobacter baumannii DSM 30008; conditions: Mueller-Hinton II broth + 0.02% BSA, 18-20 hours at 35° C.
Experimental: as §1, §2

[4] = tested on: human red blood cells (hRBC); assay: Hemolysis of human red blood cells; conditions: 100 μg/ml, 20% hRBC, 1 h at 37° C.
Outline: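 Washed fresh human erythrocytes (20% v/v, about 0.9×10^9 cells/ml final) incubated with peptide at 100 μg/ml for 1 h at 37° C with shaking. Supernatant OD540 read; hemolysis expressed relative to 2.5% Triton X-100 (100%) and PBS with 0.001% acetic acid (0%).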

| Structure (SMILES) | Escherichia coli ATCC 25922 MIC [1] [µg/mL] | Klebsiella pneumoniae ATCC 13883 MIC [2] [µg/mL] | Acinetobacter baumannii DSM 30008 MIC [3] [µg/mL] | Hemolysis at 100 μg/ml [4] [%] |
| --- | --- | --- | --- | --- |
| C[C@@H]1NC(=O)[C@H](CNC(=O)Nc2ccc(Cl)cc2)NC(=O)[C@@H]2CCCN2C(=O)[C@H]2CCCN2C(=O)[C@H](CO)NC(=O)[C@H](C)NC(=O)[C@H](C(C)(C)C)NC(=O)[C@H](CCN)NC(=O)[C@H](Cc2c[nH]c3ccccc23)NC(=O)[C@H](CCN)NC(=O)[C@@H](CCN)NC(=O)[C@H](CCCN)NC(=O)[C@H](CCN)NC(=O)[C@H](CC2CCCCC2)NC1=O [compound 53] (cyclo([Dap]([CO-NH(4-Cl-phenyl)])A[Cha][Dab][Orn][dDab][Dab]W[Dab][Tle]AS[dP]P)) | 1 | 1 | 1 | 2 |
| CC(C)C[C@@H]1NC(=O)[C@@H]2CCCN2C(=O)[C@H]2CCCN2C(=O)[C@H](CO)NC(=O)[C@H](C)NC(=O)[C@H](C(C)(C)C)NC(=O)[C@H](CCN)NC(=O)[C@H](Cc2c[nH]c3ccccc23)NC(=O)[C@H](CCN)NC(=O)[C@@H](CCN)NC(=O)[C@H](CCCN)NC(=O)[C@H](CCN)NC(=O)[C@H](CC2CCCCC2)NC(=O)[C@H](CNC(=O)Nc2ccccc2Cl)NC1=O [compound 38] (cyclo(L[Dap]([CO-NH(2-ClPh)])[Cha][Dab][Orn][dDab][Dab]W[Dab][Tle]AS[dP]P)) | 1 | 1 | 1 | 4 |
| C[C@@H]1NC(=O)[C@H](CNC(=O)Nc2ccccc2Cl)NC(=O)[C@@H]2CCCN2C(=O)[C@H]2CCCN2C(=O)[C@H](CO)NC(=O)[C@H](C)NC(=O)[C@H](C(C)(C)C)NC(=O)[C@H](CCN)NC(=O)[C@H](Cc2c[nH]c3ccccc23)NC(=O)[C@H](CCN)NC(=O)[C@@H](CCN)NC(=O)[C@H](CCCN)NC(=O)[C@H](CCN)NC(=O)[C@H](CC2CCCCC2)NC1=O [compound 52] (cyclo([Dap]([CO-NH(2-ClPh)])A[Cha][Dab][Orn][dDab][Dab]W[Dab][Tle]AS[dP]P)) | 1 | 1 | 2 | 0 |
